# In patent EP0013144A1, “Substituted diphenylamine derivatives, compositions and herbicidal uses thereof, and processes for their preparation” (ICI AUSTRALIA LIMITED, priority 1978, dated 1980):
# What was measured:
# Type in all cases: in vivo
# Winter wheat [1] = assay: Post-emergence herbicidal test, young pot plants (Example 33); set-up: key: 0 = 0-20% damage, 5 = complete kill, vs untreated control; conditions: 2.0 kg/ha, after 14 days
# Protocol: (§1) The compounds were formulated for test by mixing an appropriate amount with 5 ml of an emulsion prepared by diluting 160 ml of a solution containing 21.S g per litre of "Span" 80 and 78.2 g per litre of "Tween" 20 in methylcyclohexanone to 500 ml with water. "Span" 80 is a Trade Mark for a surface-active agent comprising sorbitan monolaurate. "Tween" 20 is a Trade Mark for a surface-active agent comprising a condensate of sorbitan monolaurate with 20 molar proportions of ethylene oxide. Each 5 ml emulsion containing a test compound was'then diluted to 40 ml with water and sprayed on to young pot plants (post-emergence test) of the species named in Table 5 below. Damage to test plants was assessed after 14 days on a scale of 0 to 5 where 0 is 0 to 20% damage and 5 is complete kill. In a test for pre-emergence herbicidal activity, seeds of the test plants were sown in a shallow slit formed in the surface of soil in fibre trays. The surface was then levelled and sprayed, and fresh soil then spread thinly over the sprayed surface. Assessment of herbicidal damage was carried out after 21 days using the same scale of 0 to 5 as the post-emergence test. In both cases the degree of herbicidal damage was assessed by comparison with untreated control plants. A dash (-) means that no experiment was carried out.
# Maize [2] = assay: as above; conditions: 2.0 kg/ha, after 14 days
# Protocol: as §1
# Rice [3] = assay: as above; conditions: 2.0 kg/ha, after 14 days
# Protocol: as §1
# Rape [4] = assay: Pre-emergence herbicidal test, fibre trays (Example 33); conditions: 2.0 kg/ha, after 21 days
# Protocol: as §1
# Cotton [5] = assay: as above; conditions: 2.0 kg/ha, after 21 days
# Protocol: as §1
# Winter wheat [6] = assay: as above; conditions: 2.0 kg/ha, after 21 days
# Protocol: as §1
# Sugar beet [7] = assay: as above; conditions: 2.0 kg/ha, after 21 days
# Protocol: as §1
# Amaranthus retroflexus [8] = assay: as above; conditions: 2.0 kg/ha, after 21 days
# Protocol: as §1
# Ipomea purpurea [9] = assay: as above; conditions: 2.0 kg/ha, after 21 days
# Protocol: as §1
# Senecio vulgaris [10] = assay: as above; conditions: 2.0 kg/ha, after 21 days
# Protocol: as §1
# Soy bean [11] = assay: as above; conditions: 2.0 kg/ha, after 21 days
# Protocol: as §1
# Wheat [12] = assay: Post-emergence herbicidal activity (Example 32); set-up: key: 0-3 scale: 0 = 0-25% damage, 3 = 75-99% kill, 3+ = 100% kill; conditions: 3 weeks after spraying
# Protocol: (§2) Concentrated formulations of the compounds of the invention were prepared by: • a) in the case of oils and waxy solids, dissolving the compound in toluene containing 7% v/v "Teric" N13 ("Teric" is a Trade MarK and "Teric" N13, a product of ethoxylation of nonylphenol, is available from ICI Australia Limited) and 3% v/v "Kemmat" SC15B ("Kemmat" is a Trade Mark and "Kemmat" SC15B is a formulation of calcium dodecylbenzene sulfonate); or • b) in the case of crystalline solids, adding 5 parts by weight of the compound and 1 part by weight of . ''Dyapol" PT ("Dyapol" is a Trade Mark and "Dyapol" PT is an anionic suspending agent) to 94 parts by weight of an aqueous solution containing 0.25% v/v of "Teric" N8 (a product of ethoxylation of nonylphenol) and ball-milling the mixture to produce a stable suspension. The emulsifiable concentrates and suspensions were then diluted with water to give an aqueous composition of the required concentration suitable for use in the evaluation of the pre-emergence and post-emergence herbicidal activity of the compounds of the invention.
# (§3) The post-emergent herbicidal activity of the compounds of the invention formulated as described in Example 30 was assessed by the following procedure.
# (§4) The seeds of the test species were sown in rows 2 cm deep in soil contained in seed boxes. The monocotyledonous plants and the dicotyledonous plants were sown in separate seed boxes in duplicate. The four seed boxes were placed in a glasshouse, lightly watered with an overhead spray to initiate germination and then sub-irrigated as required for optimum plant growth. After the plants had grown to a height of about 10 to 12.5 cm one box of each of the monocotyledonous plants and the dicotyledonous plants was removed from the glasshouse and sprayed with the required quantity of a composition of the invention. After spraying the boxes were returned to the glasshouse for further 3 weeks and the effects of the treatment was visually assessed by comparison with the untreated controls. The results are presented in Table 4 where the damage to plants is rated on a scale of from 0 to 3 where 0 represents 0 to 25% damage, 3 represents 75 to 99% kill and 3+ represents 100% kill. A dash (-) means that no experiment was carried out.
# Rice [13] = assay: Pre-emergence herbicidal test, fibre trays (Example 33); conditions: 2.0 kg/ha, after 21 days
# Protocol: as §1
# Rape [14] = assay: Post-emergence herbicidal test, young pot plants (Example 33); conditions: 2.0 kg/ha, after 14 days
# Protocol: as §1
# Cotton [15] = assay: as above; conditions: 2.0 kg/ha, after 14 days
# Protocol: as §1
# Sugar beet [16] = assay: as above; conditions: 2.0 kg/ha, after 14 days
# Protocol: as §1
# Ipomea purpurea [17] = assay: as above; conditions: 2.0 kg/ha, after 14 days
# Protocol: as §1
# Senecio vulgaris [18] = assay: as above; conditions: 2.0 kg/ha, after 14 days
# Protocol: as §1
# Soy bean [19] = assay: as above; conditions: 2.0 kg/ha, after 14 days
# Protocol: as §1
# Maize [20] = assay: Pre-emergence herbicidal test, fibre trays (Example 33); set-up: key: 0 = 0-20% damage, 5 = complete kill, vs untreated control; conditions: 2.0 kg/ha, after 21 days
# Protocol: as §1
# Ipomea [21] = assay: Post-emergence herbicidal activity (Example 32); conditions: 5 kg/ha, 3 weeks after spraying
# Protocol: as §2, §3, §4
# Japanese millet [22] = assay: Post-emergence herbicidal activity (Example 32); conditions: 3 weeks after spraying
# Protocol: as §2, §3, §4
# Mustard [23] = assay: Post-emergence herbicidal activity (Example 32); conditions: 3 weeks after spraying
# Protocol: as §2, §3, §4
# Sunflower [24] = assay: Post-emergence herbicidal activity (Example 32); conditions: 3 weeks after spraying
# Protocol: as §2, §3, §4
# Wild Oats [25] = assay: Post-emergence herbicidal activity (Example 32); conditions: 3 weeks after spraying
# Protocol: as §2, §3, §4
# Ryegrass [26] = assay: Post-emergence herbicidal activity (Example 32); conditions: 3 weeks after spraying
# Protocol: as §2, §3, §4
# Ipomea [27] = assay: Pre-emergence herbicidal activity (Example 31); conditions: 10 kg/ha, after three weeks
# Protocol: as §2
# (§5) The pre-emergent herbicidal activity of the compounds of the invention formulated as described in Example 30 was assessed by the following procedure.
# (§6) The seeds of the test species were sown in rows 2 cm deep in soil contained in seed boxes. The monocotyledonous plants and the dicotyledonous plants were sprayed with the required quantity of a composition of the invention. Two duplicate seed Doxes were prepared in the same manner but were not sprayed with a composition of the invention and were used for comparison purposes. All the boxes were placed in a glasshouse, lightly watered with an overhead spray to initiate germination and then sub-irrigated as required for optimum plant growth. After three weeks the boxes were removed from the glasshouse and the effect of the treatment was visually assessed. The results are presented in Table 3 where the damage to plants is rated on a scale of from 0 to 3 where 0 represents from 0 to 25% damage, 3 represents 75 to 99% kill and 3+ represents 100% kill.
# (§7) A dash (-) means that no experiment was carried out.
# Japanese millet [28] = assay: Pre-emergence herbicidal activity (Example 31); conditions: 10 kg/ha, after three weeks
# Protocol: as §2, §5, §6, §7
# Mustard [29] = assay: Pre-emergence herbicidal activity (Example 31); conditions: 10 kg/ha, after three weeks
# Protocol: as §2, §5, §6, §7
# Sunflower [30] = assay: Pre-emergence herbicidal activity (Example 31); conditions: 10 kg/ha, after three weeks
# Protocol: as §2, §5, §6, §7
# Wild Oats [31] = assay: Pre-emergence herbicidal activity (Example 31); conditions: 10 kg/ha, after three weeks
# Protocol: as §2, §5, §6, §7
# Chenopodium album = assay: Post-emergence herbicidal test, young pot plants (Example 33); conditions: 2.0 kg/ha, after 14 days
# Protocol: as §1
# Amaranthus retroflexus [32] = assay: as above; conditions: 2.0 kg/ha, after 14 days
# Protocol: as §1
# Polygonum aviculare = assay: as above; conditions: 2.0 kg/ha, after 14 days
# Protocol: as §1
# Wheat [33] = assay: Pre-emergence herbicidal activity (Example 31); set-up: key: 0-3 scale: 0 = 0-25% damage, 3 = 75-99% kill, 3+ = 100% kill; conditions: 10 kg/ha, after three weeks
# Protocol: as §2, §5, §6, §7
# Ryegrass [34] = assay: Pre-emergence herbicidal activity (Example 31); set-up: key: 0-3 scale: 0 = 0-25% damage, 3 = 75-99% kill, 3+ = 100% kill; conditions: 10 kg/ha, after three weeks
# Protocol: as §2, §5, §6, §7
smiles,measurement,setting,value
COC(=O)C(C)Oc1ccc(N(C)c2ccc([N+](=O)[O-])cc2[N+](=O)[O-])cc1 (centres unmarked) [Compound 18],"damage to test plants, Ww",Winter wheat [1],0 (0 is 0 to 20% damage)
same,"damage to test plants, Mz",Maize [2],2
same,"damage to test plants, Rc",Rice [3],0 (0 is 0 to 20% damage)
same,"herbicidal damage, Rp",Rape [4],1
same,"herbicidal damage, Ct",Cotton [5],0 (0 is 0 to 20% damage)
same,"herbicidal damage, Ww",Winter wheat [6],0 (0 is 0 to 20% damage)
same,"herbicidal damage, Sb",Sugar beet [7],0 (0 is 0 to 20% damage)
same,"herbicidal damage, Am",Amaranthus retroflexus [8],0 (0 is 0 to 20% damage)
same,"herbicidal damage, Ip",Ipomea purpurea [9],0 (0 is 0 to 20% damage)
same,"herbicidal damage, Sn",Senecio vulgaris [10],0 (0 is 0 to 20% damage)
same,"herbicidal damage, Sy",Soy bean [11],0 (0 is 0 to 20% damage)
same,"damage to plants, Wh",Wheat [12]; 5 kg/ha,2
same,"herbicidal damage, Rc",Rice [13],1
same,"damage to test plants, Rp",Rape [14],0 (0 is 0 to 20% damage)
same,"damage to test plants, Ct",Cotton [15],0 (0 is 0 to 20% damage)
same,"damage to test plants, Sb",Sugar beet [16],1
same,"damage to test plants, Ip",Ipomea purpurea [17],0 (0 is 0 to 20% damage)
same,"damage to test plants, Sn",Senecio vulgaris [18],0 (0 is 0 to 20% damage)
same,"damage to test plants, Sy",Soy bean [19],0 (0 is 0 to 20% damage)
same,"herbicidal damage, Mz",Maize [20],1
same,"damage to plants, Ip",Ipomea [21],0 (0 represents 0 to 25% damage)
same,"damage to plants, Jm",Japanese millet [22]; 5 kg/ha,3+ (3+ represents 100% kill)
same,"damage to plants, Ms",Mustard [23]; 5 kg/ha,0 (0 represents 0 to 25% damage)
same,"damage to plants, Sf",Sunflower [24]; 5 kg/ha,0 (0 represents 0 to 25% damage)
same,"damage to plants, Ot",Wild Oats [25]; 5 kg/ha,3 (3 represents 75 to 99% kill)
same,"damage to plants, Rg",Ryegrass [26]; 5 kg/ha,3+ (3+ represents 100% kill)
COC(=O)C(C)Oc1ccc(Nc2ccc([N+](=O)[O-])cc2[N+](=O)[O-])cc1 (centres unmarked) [Compound 15],"damage to test plants, Ww",Winter wheat [1],2
same,"damage to test plants, Mz",Maize [2],4
same,"damage to test plants, Rc",Rice [3],2
same,"herbicidal damage, Rp",Rape [4],0 (0 is 0 to 20% damage)
same,"herbicidal damage, Ct",Cotton [5],0 (0 is 0 to 20% damage)
same,"herbicidal damage, Ww",Winter wheat [6],0 (0 is 0 to 20% damage)
same,"herbicidal damage, Sb",Sugar beet [7],0 (0 is 0 to 20% damage)
same,"herbicidal damage, Ip",Ipomea purpurea [9],0 (0 is 0 to 20% damage)
same,"herbicidal damage, Sn",Senecio vulgaris [10],0 (0 is 0 to 20% damage)
same,"herbicidal damage, Sy",Soy bean [11],1
same,"damage to plants, Ip",Ipomea [27],0 (0 represents from 0 to 25% damage)
same,"damage to plants, Jm",Japanese millet [28],3 (3 represents 75 to 99% kill)
same,"damage to plants, Ms",Mustard [29],0 (0 represents from 0 to 25% damage)
same,"damage to plants, Sf",Sunflower [30],0 (0 represents from 0 to 25% damage)
same,"damage to plants, Ot",Wild Oats [31],1
same,"damage to plants, Wh",Wheat [12]; 1 kg/ha,0 (0 represents 0 to 25% damage)
same,"damage to plants, Wh",Wheat [12]; 5 kg/ha,2
same,"damage to plants, Wh",Wheat [12]; 10 kg/ha,2
same,"herbicidal damage, Rc",Rice [13],0 (0 is 0 to 20% damage)
same,"damage to test plants, Rp",Rape [14],2
same,"damage to test plants, Ct",Cotton [15],2
same,"damage to test plants, Ca",Chenopodium album,1
same,"damage to test plants, Sb",Sugar beet [16],0 (0 is 0 to 20% damage)
same,"damage to test plants, Am",Amaranthus retroflexus [32],2
same,"damage to test plants, Ip",Ipomea purpurea [17],0 (0 is 0 to 20% damage)
same,"damage to test plants, Sn",Senecio vulgaris [18],0 (0 is 0 to 20% damage)
same,"damage to test plants, Pi",Polygonum aviculare,0 (0 is 0 to 20% damage)
same,"damage to test plants, Sy",Soy bean [19],2
same,"herbicidal damage, Mz",Maize [20],2
same,"damage to plants, Jm",Japanese millet [22]; 1 kg/ha,3 (3 represents 75 to 99% kill)
same,"damage to plants, Jm",Japanese millet [22]; 5 kg/ha,3+ (3+ represents 100% kill)
same,"damage to plants, Jm",Japanese millet [22]; 10 kg/ha,3+ (3+ represents 100% kill)
same,"damage to plants, Ms",Mustard [23]; 1 kg/ha,1
same,"damage to plants, Sf",Sunflower [24]; 1 kg/ha,0 (0 represents 0 to 25% damage)
same,"damage to plants, Sf",Sunflower [24]; 5 kg/ha,0 (0 represents 0 to 25% damage)
same,"damage to plants, Sf",Sunflower [24]; 10 kg/ha,0 (0 represents 0 to 25% damage)
same,"damage to plants, Ot",Wild Oats [25]; 10 kg/ha,2
same,"damage to plants, Rg",Ryegrass [26]; 1 kg/ha,1
same,"damage to plants, Rg",Ryegrass [26]; 5 kg/ha,3+ (3+ represents 100% kill)
same,"damage to plants, Rg",Ryegrass [26]; 10 kg/ha,3+ (3+ represents 100% kill)
same,"damage to plants, Wh",Wheat [33],0 (0 represents from 0 to 25% damage)
same,"damage to plants, Rg",Ryegrass [34],3 (3 represents 75 to 99% kill)
